Reference: a melting point compilation (Tetko et al.; mined from patent text by program, amines drawn as free bases though some values may be those of a salt)

Row | Compound | melting point [°C]
1 | CCOC(=O)C1(C(=O)OCC)CCC2(c3cc(OC)c(OC)cc3CCN2C(C)=O)C(C2c3cc(OC)c(OC)cc3CCN2C)C1 (stereo not drawn) | 166 to 168
2 | NC(=O)[C@H](Cc1ccccc1)N1C(=O)c2ccccc2C1=O | 211 to 215
3 | OC(Cc1ccc(Cl)cc1Cl)(Cn1cnnc1)c1ccc(-c2ccccc2)cc1 (stereo not drawn) | 260
4 | Ic1cccc(-c2nnc(-c3ccc4ccccc4c3)o2)c1 | 156 to 158
5 | O=S(=O)(c1ccc(Cl)cc1)c1ccc(-c2ccccc2)cc1 | 169
6 | COc1ccc(Cn2c(=O)oc(=O)c3ccccc32)cc1 | 143
7 | COc1ccc(C(C)C)cc1-c1cc(-c2nnnn2C2CCN(C(=O)OC(C)(C)C)C2)c(OCc2ccccc2)cc1OCc1ccccc1 (stereo not drawn) | 73 to 77
8 | O=c1ccsc2c3ccccc3n(CCN3CCOCC3)c12 | 136 to 137
9 | NC(=O)OCC(O)Cn1oc2ccc(Cl)cc2c1=O (stereo not drawn) | 161 to 162
10 | S=C=Nc1ccc2nccnc2c1Br | 157 to 158
11 | CCOC(=O)N1CCC(c2noc(-c3cc(Cl)c(N)c4c3OCC4)n2)CC1 | 162
12 | Cc1cc(C)cc(C(=O)c2c(C(C)C)c(=O)[nH]c(=O)n2Cc2cc(C)nc(N3C(=O)c4ccccc4C3=O)c2)c1 | 310 to 311
13 | CSc1ccc(-c2csc3ccc(-c4nnc(C)o4)cc23)cc1 | 198 to 199
14 | C=CCn1c(=O)c2c(nc(/C=C/c3cc(OC)c(O)c(OC)c3)n2C)n(CC=C)c1=O | 239 to 240
15 | O=[N+]([O-])c1ccc(Cl)cc1Sc1cccc2cnccc12 | 151 to 153
16 | COC(=O)c1ccc(CC(C)NCC(O)c2ccccc2)c(OC)c1 (stereo not drawn) | 102 to 104
17 | CC(C)OC(=O)C=CC1C(C(=O)O)C1(C)C (stereo not drawn) | 98
18 | CCC(CSC(=S)N(C)C)[N+](=O)[O-] (stereo not drawn) | 23
19 | NS(=O)(=O)c1ccccc1S(=O)(=O)NC1CC1 | 202 to 203
20 | CCOc1ncc(C(C)=O)cc1C(=O)Nc1c(C(N)=O)nn(C2CN(C(=O)OC(C)(C)C)C2)c1CC | 220 to 223
21 | CCOCc1nc2c(N)nc3cccnc3c2n1CC1(O)CCC1 | 162 to 163

Row | Compound | melting point [°C]
22 | O=C1SCCN1Cc1ccccc1[N+](=O)[O-] | 92 to 93
23 | Cc1c(N2C[C@H](CF)[C@](C)(N)C2)c(F)cc2c(=O)c(C(=O)O)cn([C@@H]3C[C@@H]3F)c12 | 135 to 137
24 | CC(=O)C1CC=C2C(CCC3=Cc4c(cnn4-c4ccc(F)cc4)CC32C)C1C(C)=O (stereo not drawn) | 157 to 159
25 | CCCCCCCCCCCCCCOC(=O)CCC(=O)O | 48 to 49
26 | O=C(C1CCCCO1)N1CCNCC1 (stereo not drawn) | 53 to 58
27 | CCOC(=O)C(C(=O)OCC)C(=O)C(C)Oc1ccc(Oc2ccc(C#N)cc2)cc1 (stereo not drawn) | 42 to 46
28 | OC(c1ccc2c(c1)CCCN2)(C(F)(F)F)C(F)(F)F | 115 to 116
29 | O=C(Nc1ccccc1N1CCc2ccccc21)c1ccco1 | 99 to 102
30 | Nc1noc(-c2nc(Cl)c(N)nc2N)n1 | 278
31 | O=c1[nH]c2sc(Br)c(Br)c2[nH]c1=O | > 300
32 | Nc1nnc(-c2ccc3ncn(-c4cc(C(F)(F)F)ccc4Cl)c3c2)o1 | 288 to 289
33 | C=CCc1cc2c(c(CC=C)c1O)N(CC=C(C)C)C(=O)CC2 | 94 to 96
34 | CN1CC(C(=O)COC(=O)c2ccncc2)CC2c3cccc4[nH]cc(c34)CC21 (stereo not drawn) | 158 to 161
35 | CN(CC#N)Cc1nc(-c2cc(C(C)(C)C)c(O)c(C(C)(C)C)c2)cs1 | 150 to 156
36 | COC(=O)c1cc(-c2cccc(C3=NC(C)(C)Cc4cc(OC)c5c(c43)CC(C)(C)O5)c2)ccc1NC(C)=O | 116 to 119
37 | CC1=C(CC2=CC(=O)C=CC2=O)C(=O)C2C=CC=CC2C1=O (stereo not drawn) | 142 to 144
38 | CN(c1ccc([N+](=O)[O-])cc1[N+](=O)[O-])S(=O)(=O)c1ccccc1 | 152 to 153
39 | O=C(N[C@H](Cc1ccc(C(F)(F)F)cc1)[C@@H](O)c1cccc2ccccc12)c1ccc(C(F)(F)F)cc1 (racemic) | 232 to 233
40 | O=C(NC1CC1)c1cccc(-c2ccc3c(c2)N(c2ccc(Cl)cc2Cl)CC3)c1 | 215 to 218
41 | CCCCCCCCCCCCCCCCCNC(=O)OCC(CO)Oc1ccon1 (stereo not drawn) | 71 to 72
42 | CCCSc1nc(NC2CC2c2cccc(N)c2)c2nnn(C3CC(O)C(O)C3O)c2n1 (stereo not drawn) | 105 to 107

The next lines start with the values.

Row | melting point [°C] | Compound
43 | 109 to 111 | CN(C)CCCOc1ccc(C(=O)NN)cc1F
44 | 155 to 157 | N=C(NNC=O)c1ccc(-c2ccc(Cl)cc2)o1
45 | 162 | CCOC(=O)c1cc(-c2ccc(C(F)(F)F)cc2)n[nH]1
46 | 119 to 122 | CON=CNC(=O)c1ccc(Br)cc1C
47 | 98 to 100 | COC(=O)CCc1nc(C(=O)OC)ccc1OC
48 | 97 to 98 | Cc1cccc(C(=O)C=CN(C)C)n1
49 | 120 to 122 | Nc1ncnc2c1c(-c1cccc(O)c1)cn2-c1cccc(OCCCn2ccnc2)c1
50 | 140 to 141 | OCCCOC(c1ccccc1)c1ccccc1
51 | 142 | COC1=CC(C)(O)C(CCC(=O)O)C=C1 (stereo not drawn)
52 | 194 to 195 | CCCc1c(OCc2cccc(-c3nnn[nH]3)c2)ccc(C(C)=O)c1O
53 | 174 to 176 | Cc1cc(OCC(=S)Nc2cccc(C(=O)O)c2)ccc1C(C)C
54 | 122 to 123 | Cc1sc(N)c(C(=O)c2ccsc2)c1C
55 | 216 | CCCC1=C(C(=O)OCC)C(c2ccccc2S(C)=O)c2c[nH]nc2N1 (stereo not drawn)
56 | 289 to 292 | Cc1[nH]c(=O)[nH]c1C(=O)c1ccc(F)cc1
57 | 138 | OC[C@H](O)CNc1ccc2cc(OCC3CC3)ccc2c1
58 | 178 to 180 | O=C(O)Cc1cccc2c(=O)cc(-c3c(F)cccc3F)oc12

Row | melting point [°C] | Compound
59 | 30 to 35 | COc1ccc2cc([C@H](C)C(=O)SCCCCO[N+](=O)[O-])ccc2c1
60 | 149 to 150 | Cc1nc(-c2ccc(C(F)(F)F)cc2)sc1COc1ccc(CC(=O)O)cc1
61 | 180 to 183 | O=C1NCCC[C@@H]1NS(=O)(=O)c1ccccc1F
62 | 120 to 121 | CCCC[C@H](NC(=O)CC[C@H](C)CNC(=O)COc1ccccc1)C(=O)CS(=O)(=O)Cc1ccco1
63 | 221 to 223 | Cc1nc(N2CCN(Cc3ccc(F)c(F)c3)C2=O)sc1C(N)=O
64 | 197 to 198 | Cc1ccc(C(=O)NC(NC(=S)Nc2cccc(C)c2)C(F)(F)F)cc1 (stereo not drawn)
65 | 78 | CCC(C)(CCc1ccccc1)NC(=O)n1nc(C)n(N)c1=O (stereo not drawn)
66 | 91 to 93 | CCOC(=O)c1cc(-n2c(OC)nc(C(F)(F)F)cc2=O)c(F)cc1Cl
67 | 118 to 120 | O=C(NCCCC(F)(F)F)Oc1ccc([N+](=O)[O-])cc1
68 | 96.4 to 98.3 | O=C(Nc1ccccc1)c1ccccc1Cl
69 | 104 to 107 | CC1(C)CCC(C)(C)N1CC(O)COc1cc2ccccc2c(=O)c2ccsc12 (stereo not drawn)
70 | 305 | Cn1cc(O)c(=O)c2ccc(C#N)cc21
71 | 165 to 166 | CC(C)(C)c1cc(CCc2ccccc2NC(=O)NCC(C)(C)c2cccc(F)c2)cc(C(C)(C)C)c1O
72 | > 270 | CN1C(=O)CCCc2ccc(NC(=O)c3ccc(C(=O)O)cc3)cc21
73 | 132 | CC(C)(C)OC(=O)N1CCC[C@H](O)[C@H](NC(=O)c2ccc(OC(C)(C)C)cc2)C1
